This is an account of results in US10526343B2, “Heterocyclic systems and pharmaceutical applications thereof” (University of Sharjah, priority 2018, dated 2020).

For one assay, the system named is MRSA-1. Nature of the assay: Time-kill study. Format: cell-based, Staphylococcus aureus. Here is the method:
Time-kill study: Compound 1o was tested for the time required to kill the bacterial strain MRSA-1. A time-kill assay was performed by the broth micro-dilution method in accordance with the CLSI guidelines. Inoculum suspensions with approximately 5×10^5 CFU/mL of exponentially growing bacterial cells were incubated in each well of a 96-well plate. […] Aliquots of 20 μL were removed from the inoculum culture after timed intervals of incubation (i.e. 0, 30 minutes, 1, 2, 4, 6, 8, and 24 hours), and serial 10-fold dilutions were prepared in 0.85% sodium chloride solution. Then, 10-100 μL of each dilution (as appropriate) were spread on the surface of Mueller-Hinton agar plates and incubated at 37° C. for 24 hours. Plate count technique was used to determine the number of viable cells for each time point. The experiments were performed in triplicate. Meropenem and ciprofloxacin were used as quality control antibiotics.

The next assay deals with S. aureus (ATCC 25923). The assay can be described thus: MIC by broth microdilution. The assay is classed as cell-based. As to conditions: Staphylococcus aureus, ATCC25923. The protocol: (§1) Bacteria of the genus Staphylococcus were selected for MIC investigation due to its clinical importance. Compounds showing activity against S. aureus (ATCC 25923) were tested against 10 multidrug-resistant strains of Staphylococcus species, including: clinical isolates methicillin-resistant Staphylococcus aureus (MRSA) strains MRSA-1, MRSA-2, and MRSA-3, and environmental isolates S. saprophyticus (strains UDH-1, UDH-2, UDH-3 and UDH-4), S. haemolyticus (strains UDH-6 and UDH-7), and S. epidermidis strain UDH-5.
(§2) A broth microdilution method was used to measure MIC according to the Clinical and Laboratory Standards Institute guidelines. Two-fold serial dilutions of the test compound (8 concentrations ranged between 100-0.78 μg/mL) were tested. Two reference antibiotics were used as quality controls (ciprofloxacin and amikacin). In each experiment, solvent (DMSO) was used as a negative control, un-treated control (composing of bacteria in Mueller-Hinton broth) was used as a growth control, blank (culture media alone) was used as sterility control. The 96-well microplate with the test compounds was incubated for 20 hours at 37° C. Turbidity in wells indicated bacterial growth. […] For the definite determination of MIC, CellTiter-Blue® Cell Viability Assay (Promega, USA) was used (as above). The MIC was defined as the lowest compound concentration that prevented the color change of the Cell Viability solution (absence of bacterial growth; thus, suspension remained blue in color). For the definite determination of MIC, CellTiter-Blue® Cell Viability Assay (Promega, USA) was used (as above). To each well of the 96-well microplate, 20 μL of the Cell Viability Assay solution was added to the overnight (20 hours culture) and incubated at 37° C. for 4 hours. After the end of the incubation, pink and blue colors were used to differentiate viable from dead bacterial suspensions, respectively. The MIC was defined as the lowest compound concentration that prevented the color change.
Background: Broth dilution looks for growth in wells or tubes with falling amounts of substance.

Assay [1] relates to UDH-7 (environmental isolate, S. haemolyticus). Nature of the assay: MIC by broth microdilution. Format: cell-based. As to conditions: Staphylococcus haemolyticus; environmental isolate. Here is the method:
as §1
(§3) All these strains were resistant to at least three antibiotics from different classes, as confirmed by a disk diffusion assay.
as §2

The subject of assay [2] is UDH-3 (environmental isolate, S. saprophyticus). The assay can be described thus: MIC by broth microdilution. Format: cell-based. As to conditions: Staphylococcus saprophyticus; environmental isolate. The protocol:
as §1, §3, §2

Assay [3] deals with UDH-6 (environmental isolate, S. haemolyticus). The assay can be described thus: MIC by broth microdilution. The assay is classed as cell-based. As to conditions: Staphylococcus haemolyticus; environmental isolate. The protocol: as §1, §3, §2
The test system of assay [4] is UDH-5 (environmental isolate, S. epidermidis). The assay can be described thus: MIC by broth microdilution. The assay is classed as cell-based. Particulars: Staphylococcus epidermidis. Here is the method: as §1, §3, §2
Assay [5] deals with UDH-1 (environmental isolate, S. saprophyticus). Nature of the assay: MIC by broth microdilution. Format: cell-based. Particulars: Staphylococcus saprophyticus; environmental isolate. The protocol:
as §1, §3, §2

Assay [6] has as its system UDH-4 (environmental isolate, S. saprophyticus). Nature of the assay: MIC by broth microdilution. The assay is classed as cell-based. As to conditions: Staphylococcus saprophyticus. Here is the method:
as §1, §3, §2

Assay [7] deals with UDH-2 (environmental isolate, S. saprophyticus). Nature of the assay: MIC by broth microdilution. The assay is classed as cell-based. As to conditions: Staphylococcus saprophyticus. The protocol:
as §1, §3, §2

The test system of assay [8] is Escherichia coli (ATCC 25922). Nature of the assay: Cell viability assay (resazurin) screening for antibacterial activity. Format: cell-based. More on the design: key: Positive: A positive result indicates antibacterial activity expressed as growth inhibition; Negative: a negative result indicates no antibacterial activity expressed as bacterial growth at the tested concentration. Particulars: single high concentration of 1 mg/mL.

Assay [9] relates to Enterococcus faecalis (ATCC 29212). The description is as above. Particulars: single high concentration of 1 mg/mL. The arrangement: key: Positive: A positive result indicates antibacterial activity expressed as growth inhibition; Negative: a negative result indicates no antibacterial activity expressed as bacterial growth at the tested concentration. Format: cell-based.
Assay [10] has as its system Bacillus subtilis (environmental isolate). The description is as above. The assay is classed as cell-based. More on the design: key: Positive: A positive result indicates antibacterial activity expressed as growth inhibition; Negative: a negative result indicates no antibacterial activity expressed as bacterial growth at the tested concentration. As to conditions: single high concentration of 1 mg/mL.

For assay [11], the system named is MRSA-1 (clinical isolate, methicillin-resistant Staphylococcus aureus). Nature of the assay: MIC by broth microdilution. The assay is classed as cell-based. Particulars: Staphylococcus aureus, MRSA; clinical isolate. Here is the method:
(§4) Bacteria of the genus Staphylococcus were selected for MIC investigation due to its clinical importance.
as §2, with “Two reference antibiotics were used as quality controls (ciprofloxacin and amikacin).” left out

Assay [12] deals with MRSA-2 (clinical isolate, methicillin-resistant Staphylococcus aureus). The assay can be described thus: MIC by broth microdilution. Format: cell-based. The protocol:
as §4
as §2, with “Two reference antibiotics were used as quality controls (ciprofloxacin and amikacin).” left out

Assay [13] deals with MRSA-3 (clinical isolate, methicillin-resistant Staphylococcus aureus). The assay can be described thus: MIC by broth microdilution. Format: cell-based. The protocol: as §4
as §2, with “Two reference antibiotics were used as quality controls (ciprofloxacin and amikacin).” left out

In assay [14] the test system is Staphylococcus aureus (ATCC 25923). The assay can be described thus: Cell viability assay (resazurin) screening for antibacterial activity. Format: cell-based. The arrangement: key: Positive: A positive result indicates antibacterial activity expressed as growth inhibition; Negative: a negative result indicates no antibacterial activity expressed as bacterial growth at the tested concentration. Particulars: single high concentration of 1 mg/mL. Background: Alamar Blue is a resazurin reagent that responds to reducing activity.

Assay [15] has as its system Pseudomonas aeruginosa (ATCC 27853). The assay is described as above. Format: cell-based. The arrangement: key: Positive: A positive result indicates antibacterial activity expressed as growth inhibition; Negative: a negative result indicates no antibacterial activity expressed as bacterial growth at the tested concentration. Particulars: single high concentration of 1 mg/mL.

≈ marks a conversion by molar mass, not a printed value.

Turning to `C[C@@H](O)[C@H]1C(=O)N2C(C(=O)O)=C(S[C@@H]3CN[C@H](C(=O)N(C)C)C3)[C@H](C)[C@H]12` [meropenem, reference compound], the “time of exposure at which killing was achieved” value turned out to be 8 h with MRSA-1 (8 μg/mL), 6 h in the assay with MRSA-1 (16 μg/mL) and 24 h in the assay with MRSA-1 (2-4 μg/mL). For the same compound, in the assay on MRSA-1 (32-64 μg/mL), the “time of exposure at which killing was achieved (complete inhibition of bacterial growth)” value is 4 h.
As to `O=C(O)c1cn(C2CC2)c2cc(N3CCNCC3)c(F)cc2c1=O` [Ciprofloxacin, ciprofloxacin, reference compound], the “time of exposure at which killing was achieved (complete growth inhibition)” value with MRSA-1 (32-256 μg/mL) was 24 h. The MIC (usually the lowest concentration found to suppress growth) is 0.5 µg/mL (≈ 1.51 µM) with S. aureus (ATCC 25923); 64 µg/mL (≈ 193 µM) in [1]; 64 µg/mL (≈ 193 µM) in [2]; 64 µg/mL (≈ 193 µM) in assay [3]; under 0.25 µg/mL in assay [4]; 64 µg/mL (≈ 193 µM) in [5]. Besides, the MIC in assay [6] and in assay [7] was 64 µg/mL (≈ 193 µM) throughout.
In the case of `COC(=O)CC1COc2c(cc3c4c2CCCN4CCC3)-c2c(NC(C)(C)C)n3c(-c4ccc(F)cc4)c(C)sc3[n+]21` (stereo not drawn) [Compound 1n], the “antibacterial activity, Escherichia coli” value in [8] is recorded as “Negative”. Also, the “antibacterial activity, Enterococcus faecalis” value in [9] is given as “Positive”. For the same compound, the “antibacterial activity, Bacillus subtilis” value in assay [10] is given as “Positive”. Further, the MIC in assay [11] worked out at 12.5 µg/mL; in assay [12] it was 12.5 µg/mL; in assay [13] it was 12.5 µg/mL; against S. aureus (ATCC 25923), 6.25 µg/mL; in assay [1] it was 25 µg/mL; in assay [2], 12.5 µg/mL. Also, the MIC in assay [3] was found to be 25 µg/mL; in [4], 6.25 µg/mL; in assay [5], 12.5 µg/mL; in assay [6] it was 12.5 µg/mL; in [7] it was 12.5 µg/mL. The “antibacterial activity, Staphylococcus aureus” value in assay [14] is listed as “Positive”. Further, the “antibacterial activity, Pseudomonas aeruginosa” value in assay [15] is recorded as “Negative”.
Regarding `COC(=O)CC1COc2c(cc3c4c2CCCN4CCC3)-c2c(NC(C)(C)C)n3c(-c4ccc(NC(C)=O)cc4)csc3[n+]21` (stereo not drawn) [Compound 1w], the “antibacterial activity, Escherichia coli” value in assay [8] is given as “Negative”. The “antibacterial activity, Enterococcus faecalis” value in assay [9] is recorded as “Positive”. For the same compound, the “antibacterial activity, Bacillus subtilis” value in assay [10] is “Positive”. For the same compound, the MIC was found to be 12.5 µg/mL in assay [11]; 12.5 µg/mL in assay [12]; 12.5 µg/mL in [13]; 6.25 µg/mL in the assay with S. aureus (ATCC 25923); 50 µg/mL in [1]; 12.5 µg/mL in [2]. The minimum inhibitory concentration (MIC) in assay [3] was 50 µg/mL; in assay [4], 6.25 µg/mL; in [5], 12.5 µg/mL; in assay [6], 12.5 µg/mL; in assay [7], 25 µg/mL. For the same compound, the “antibacterial activity, Staphylococcus aureus” value in [14] is on record as “Positive”. The “antibacterial activity, Pseudomonas aeruginosa” value in [15] is reported as “Negative”.
